Assay results reported in patent US7615651B2, “Diaryl, dipyridinyl and aryl-pyridinyl derivatives and uses thereof” (Pfizer Inc., priority 2006, dated 2009).
pKi: −log10 of the molar value. Counter-ions that a name gives are not always drawn. Like-named read-outs stand apart in the source and are kept apart here.

Experiments:
Assay type in all cases: biochemical
[1] = target: T1, opioid receptor kappa (Homo sapiens, UniProt P41145); test: GTPγ[35S] binding assay, antagonism of dynorphin-A
T1 construct: expressed in transfected cells
T1 sequence (P41145 whole entry): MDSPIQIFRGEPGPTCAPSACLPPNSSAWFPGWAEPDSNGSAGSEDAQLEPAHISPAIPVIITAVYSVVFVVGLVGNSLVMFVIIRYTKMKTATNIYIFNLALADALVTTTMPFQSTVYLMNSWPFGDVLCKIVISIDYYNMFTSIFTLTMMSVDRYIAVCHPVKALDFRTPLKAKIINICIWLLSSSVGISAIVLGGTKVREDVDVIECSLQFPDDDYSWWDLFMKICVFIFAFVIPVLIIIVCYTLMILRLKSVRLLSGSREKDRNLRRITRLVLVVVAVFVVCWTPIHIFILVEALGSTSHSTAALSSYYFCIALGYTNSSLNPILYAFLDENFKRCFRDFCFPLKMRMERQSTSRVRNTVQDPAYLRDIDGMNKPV
Description: (§1) Membranes were prepared from cells as described (Bass et al, 1996). GTPγ[5S] binding assays were performed in a 96 well FlashPlate™ format in duplicate using […] GTPγ[^35S] and 5 μg membrane per well in assay buffer composed of 50 mM Tris HCl, pH 7.4, 5 mM MgCl2, 1 mM EDTA, 100 mM NaCl, 30 μM GDP, 0.1% bovine serum albumin and the following protease inhibitors: 100 μg/ml bacitracin, 100 μg/ml benzamidine, 5 μg/ml aprotinin, 5 μg/ml leupeptin. The assay mix was then incubated at 30° C. with increasing concentrations of antagonist (10^−10 M to 10^−5 M) for 10 minutes and challenged with the agonists BW-373U86 (1 nM), dynorphin-A (10 nM), […] (1 μM) for opioid receptors delta, kappa, and mu, respectively. The assays were performed at 30° C. for one hour. The FlashPlates were then centrifuged at 2000×g for 10 minutes. Stimulation of GTPγ[^35S] binding was then quantified using a Wallac Microbeta and Ki calculations were done using Prism™ by Graphpad.

[2] = target: T2, opioid receptor delta (Homo sapiens, UniProt P41143); test: GTPγ[35S] binding assay, antagonism of BW-373U86
T2 construct: expressed in transfected cells
T2 sequence (P41143 whole entry): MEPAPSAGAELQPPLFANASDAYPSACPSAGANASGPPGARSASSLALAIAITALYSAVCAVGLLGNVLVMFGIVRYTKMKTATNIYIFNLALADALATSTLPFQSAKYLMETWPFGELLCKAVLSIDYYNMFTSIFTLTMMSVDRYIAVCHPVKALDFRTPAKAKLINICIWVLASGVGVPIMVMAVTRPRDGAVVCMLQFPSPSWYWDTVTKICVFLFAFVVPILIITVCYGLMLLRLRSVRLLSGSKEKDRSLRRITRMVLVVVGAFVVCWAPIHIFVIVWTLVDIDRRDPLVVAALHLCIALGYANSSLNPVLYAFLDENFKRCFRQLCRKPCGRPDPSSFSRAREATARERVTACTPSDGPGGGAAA
Description: as §1

[3] = target: T3, opioid receptor mu (Homo sapiens, UniProt P35372); test: GTPγ[35S] binding assay, antagonism of endorphin
T3 construct: expressed in transfected cells
T3 sequence (P35372 whole entry): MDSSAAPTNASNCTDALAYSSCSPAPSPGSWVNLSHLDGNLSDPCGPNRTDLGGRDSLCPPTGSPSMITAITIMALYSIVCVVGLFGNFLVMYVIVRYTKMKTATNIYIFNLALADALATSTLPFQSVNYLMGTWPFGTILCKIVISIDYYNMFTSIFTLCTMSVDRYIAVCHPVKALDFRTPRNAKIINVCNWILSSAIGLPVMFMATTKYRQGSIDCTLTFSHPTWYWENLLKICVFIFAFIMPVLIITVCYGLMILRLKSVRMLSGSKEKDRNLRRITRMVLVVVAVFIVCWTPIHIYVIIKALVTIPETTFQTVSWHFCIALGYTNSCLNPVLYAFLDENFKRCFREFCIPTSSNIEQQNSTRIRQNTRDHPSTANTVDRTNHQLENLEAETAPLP
Description: as §1

[4] = average Ki, antagonism of dynorphin-A (10 nM) at kappa opioid receptor membranes, read-out: Kappa functional Ki (GTPγ[35S] binding)
[5] = average Ki, antagonism of BW-373U86 (1 nM) at delta opioid receptor membranes, read-out: Delta functional Ki (GTPγ[35S] binding)
[6] = average Ki, antagonism of endorphin (1 μM) at mu opioid receptor membranes, read-out: Mu functional Ki (GTPγ[35S] binding)
[7] = read-out: Kappa functional Ki (GTPγ[35S] binding)
[8] = read-out: Delta functional Ki (GTPγ[35S] binding)
[9] = read-out: Mu functional Ki (GTPγ[35S] binding)
[10] = average Ki, antagonism of dynorphin-A (10 nM) at kappa opioid receptor, read-out: Kappa functional Ki (GTPγ[35S] binding)
[11] = average Ki, antagonism of BW-373U86 (1 nM) at delta opioid receptor, read-out: Delta functional Ki (GTPγ[35S] binding)
[12] = average Ki, antagonism of endorphin (1 μM) at mu opioid receptor, read-out: Mu functional Ki (GTPγ[35S] binding)

Row | SMILES | pKi [1, 7] | pKi [2, 8] | pKi [3, 9] | other results
1 | Cc1cc(C(N)=O)ccc1-c1cc(F)c(CNC2Cc3ccccc3C2)cc1F [4B-75] | – | – | – | pKi [1, 4]: 8.90; pKi [2, 5]: 9.51; pKi [3, 6]: 10.16
2 | CCc1cc(C(N)=O)ccc1-c1c(C)cc(CNCCC2CCOCC2)cc1C [4B-76] | 8.09 | 9.30 | 8.99 | –
3 | CCc1cc(C(N)=O)ccc1-c1ccc(CNC2Cc3ccccc3C2)cc1C [4B-77] | 9.02 | 9.57 | 9.94 | –
4 | NC(=O)c1ccc(-c2ccc(CNC[C@H]3CCCO3)cc2Cl)c(Cl)c1 [4B-78] | 8.07 | 7.73 | 7.45 | –
5 | CC1(C)OCC(CNCc2ccc(-c3ccc(C(N)=O)cc3Cl)c(Cl)c2)O1 (stereo not drawn) [4B-79] | – | – | – | pKi [1, 4]: 6.89; pKi [2, 5]: 8.85; pKi [3, 6]: 6.64
6 | CC(C)CCNCc1cc(F)c(-c2ccc(C(N)=O)cc2Cl)cc1F [4B-80] | 8.02 | 7.93 | 7.86 | –
7 | CCc1cc(C(N)=O)ccc1-c1cc(F)c(CNCCC(C)C)c(F)c1 [4B-81] | 7.77 | 7.82 | 7.87 | –
8 | Cc1cc(CNC2Cc3ccccc3C2)cc(Cl)c1-c1ccc(C(N)=O)cc1Cl [4B-82] | 8.75 | 9.82 | 10.54 | –
9 | Cc1cc(C(N)=O)ccc1-c1c(C)cc(CNCCC(C)C)cc1Cl [4B-83] | 8.43 | 8.78 | 9.37 | –
10 | Cc1cc(C(N)=O)ccc1-c1c(C)cc(CNC2Cc3ccccc3C2)cc1Cl [4B-84] | 9.23 | 10.11 | 10.84 | –
11 | Cc1cc(C(N)=O)ccc1-c1ccc(CNCCC(C)C)c(OCc2ccccc2)c1 [4B-85] | 8.26 | 9.23 | 8.61 | –
12 | Cc1cc(C(N)=O)ccc1-c1ccc(CNC2Cc3ccccc3C2)c(OCc2ccccc2)c1 [4B-86] | 8.76 | 10.36 | 10.05 | –
13 | Cc1cc(C(N)=O)ccc1-c1ccc(CNC2Cc3ccccc3C2)c(O)c1 [4B-88] | 9.11 | 9.23 | 9.87 | –
14 | COc1cc(-c2ccc(C(N)=O)cc2C)ccc1CNC1Cc2ccccc2C1 [4B-89] | 9.44 | 10.05 | 10.57 | –
15 | Cc1cc(-c2ccc(C(N)=O)cc2C)ccc1CNCCC(C)C [4B-90] | 8.78 | 8.78 | 8.93 | –
16 | Cc1cc(C(N)=O)ccc1-c1c(C)cc(CNCC2CCCO2)cc1Cl (stereo not drawn) [4B-91] | – | – | – | pKi [1, 4]: 8.05; pKi [2, 5]: 7.61; pKi [3, 6]: 8.65
17 | CC(C)CCNCc1ccc(-c2ncc(C(N)=O)cc2Cl)cc1 [4C-01] | – | – | – | pKi [1, 4]: 7.81; pKi [2, 5]: 7.47; pKi [3, 6]: 7.55
18 | Cc1cc(C(N)=O)cnc1-c1ccc(CNCCC(C)C)cc1 [4C-04] | – | – | – | pKi [1, 4]: 8.14; pKi [2, 5]: 7.66; pKi [3, 6]: 7.98
19 | CCOCCNCc1ccc(-c2cccc(C(N)=O)c2)c(Cl)c1 [6A-01] | – | – | – | pKi [1, 4]: 7.38; pKi [2, 5]: 7.59; pKi [3, 6]: 7.89
20 | Cn1c(=O)n(C)c2cc(CNCc3ccc(-c4cccc(C(N)=O)c4)c(Cl)c3)ccc21 [6A-04] | – | – | – | pKi [1, 4]: 6.09; pKi [2, 5]: 7.49; pKi [3, 6]: 7.82
21 | COCCNCc1ccc(-c2cccc(C(N)=O)c2)c(Cl)c1 [6A-07] | – | – | – | pKi [1, 4]: 7.24; pKi [2, 5]: 10.19; pKi [3, 6]: 7.11
22 | CC(C)CCNCc1ccc(-c2cc(-c3ncn[nH]3)ccc2F)cc1 [7A-02] | – | – | – | pKi [1, 4]: 8.75; pKi [2, 5]: 8.28; pKi [3, 6]: 8.80
23 | Cc1cc(CNCCC(C)C)ccc1-c1cccc(NS(C)(=O)=O)c1 [8A-02] | – | – | – | pKi [1, 10]: 7.82; pKi [2, 11]: 7.98; pKi [3, 12]: 8.94
24 | CC(C)CCNCc1ccc(-c2cccc(NS(C)(=O)=O)c2)c(C#N)c1 [8A-03] | – | – | – | pKi [1, 10]: 7.86; pKi [2, 11]: 7.74; pKi [3, 12]: 8.94
25 | Cc1cc(C(N)=O)ccc1-c1ccc(CNCCC(C)C)cc1 [E4-02, (4′-carbamoyl-2′-methyl-biphenyl-4-ylmethyl)-(3-methyl-butyl)-ammonium chloride] | – | – | – | pKi ([1]; read-out: Kappa functional (GTPγ[35S] binding Ki)): 8.67; pKi ([2]; read-out: Delta functional (GTPγ[35S] binding Ki)): 8.10; pKi ([3]; read-out: Mu functional (GTPγ[35S] binding Ki)): 8.21

More lines, main results first:

Row | pKi [1, 7] | pKi [2, 8] | pKi [3, 9] | SMILES | other results
26 | 8.71 | 8.71 | 9.31 | NC(=O)c1cnc(-c2ccc(CNC3Cc4ccccc4C3)cc2)c(Cl)c1 [4C-02] | –
27 | 9.01 | 9.09 | 9.70 | Cc1cc(C(N)=O)cnc1-c1ccc(CNC2Cc3ccccc3C2)cc1 [4C-03] | –
28 | 6.33 | 7.63 | 7.91 | NC(=O)c1cccc(-c2ccc(CNCCc3cscn3)cc2Cl)c1 [6A-02] | –
29 | 8.03 | 7.44 | 8.53 | NC(=O)c1cccc(-c2ccc(CN[C@H]3c4ccccc4C[C@H]3O)cc2Cl)c1 [6A-03] | –
30 | 7.57 | 7.75 | 8.28 | Cc1cc(C)n(CC(C)NCc2ccc(-c3cccc(C(N)=O)c3)c(Cl)c2)n1 (stereo not drawn) [6A-05] | –
31 | 7.49 | 8.31 | 8.06 | Cc1ncsc1CCNCc1ccc(-c2cccc(C(N)=O)c2)c(Cl)c1 [6A-08] | –
32 | 8.07 | 7.58 | 8.08 | CC(C)CCNCc1ccc(-c2cccc(-c3ncn[nH]3)c2)cc1 [7A-01] | –
33 | 8.57 | 7.90 | 8.39 | CC(C)CCNCc1ccc(-c2cc(-c3ncn[nH]3)ccc2F)c(F)c1 [7A-03] | –
34 | 7.46 | 6.51 | 7.99 | CC(C)CCNCc1ccc(-c2ccc(-c3ncn[nH]3)cc2)cc1 [7B-01] | –
35 | 8.36 | 8.43 | 9.14 | Cc1cc(CNCCC(C)C)ccc1-c1ccc(-c2ncn[nH]2)cc1 [7B-02] | –
36 | 8.03 | 7.55 | 8.77 | Cc1cc(-c2ncn[nH]2)ccc1-c1ccc(CNCCC(C)C)cc1F [7B-03] | –
37 | 7.87 | 8.09 | 8.60 | CC(C)CCNCc1ccc(-c2ccc(-c3ncn[nH]3)cc2)c(F)c1 [7B-04] | –
38 | 7.32 | 7.53 | 7.85 | CC(C)CCNCc1ccc(-c2ccc(-c3ncn[nH]3)cc2C(F)(F)F)cc1 [7B-05] | –
39 | 6.24 | 7.40 | 8.03 | CS(=O)(=O)Nc1ccc(-c2ccc(CNC3Cc4ccccc4C3)c(F)c2)cc1 [8B-02] | –
40 | 7.89 | 7.96 | 8.41 | Cc1cc(-c2nnc[nH]2)ccc1-c1ccc(C[NH2+]CCC(C)C)cc1 [E7-01, [2′-methyl-4′-(4H-[1,2,4]-triazol-3-yl)-biphenyl-4-ylmethyl]-(3-methyl-butyl)-amine hydrochloride] | –
41 | 6.55 | 7.49 | 7.38 | Cc1cc(CNCCC(C)C)ccc1-c1ccc(NS(C)(=O)=O)cc1 [E8-01, (4′-Methenesulfonylamino-2-methyl-biphenyl-4-ylmethyl)-(3-methyl-butyl)-ammonium chloride] | –
